This note sets out measurements from US20100104659A1, “BENZOPYRANOPYRAZOLES” (priority 2006, published 2010).

The structures appear in SMILES notation.

This test concerns RKO human colon adenocarcinoma cells (RKOp27 subclone), proliferating. The test can be described thus: Alamar Blue cell viability assay, RKO p27 uninduced (proliferating). The conditions noted are these: RKOp27, 72 h, read-out: −log EC50 [mol/l] RKO p27 uninduced (proliferating), anti-proliferative/cytotoxic activity (converted).

Method: The anti-proliferative/cytotoxic activity of the compounds described herein can be tested on subclones of RKO human colon adenocarcinoma cells (Schmidt et al., Oncogene 19, 2423-2429; 2000) using the Alamar Blue cell viability assay (described in O'Brien et al. Eur J Biochem 267, 5421-5426, 2000). The compounds are dissolved as 10 mM solutions in DMSO and subsequently diluted in semi-logarithmic steps. DMSO dilutions are further diluted 1:100 into Dulbecco's modified Eagle's medium (DMEM) containing 10% fetal calf serum to a final concentration twice as much as the final concentration in the test. RKO subclones are seeded into 96 well flat bottom plates at a density of 4000 cells per well in a volume of 50 μl per well. 24 hours after seeding the 50 μl each of the compound dilutions in DMEM medium are added into each well of the 96 well plate. Each compound dilution is tested as triplicates. Wells containing untreated control cells are filled with 50 μl DMEM medium containing 1% DMSO. The cells are then incubated with the substances for 72 hours at 37° C. in a humidified atmosphere containing 5% carbon dioxide. To determine the viability of the cells, 10 μl of an Alamar Blue solution (Biosource) are added and the fluorescence is measured at an extinction of 544 nm and an emission of 590 nm. For the calculation of the cell viability the emission value from untreated cells is set as 100% viability and the emission rates of treated cells are set in relation to the values of untreated cells. Viabilities are expressed as % values. The Graphpad Prism program (GraphPad Software, Inc) is used for the calculation of EC50 values for anti-proliferative/cytotoxic activity out of the obtained dose-response curves.
Each compound dilution is tested as triplicates. Wells containing untreated control cells are filled with 50 μl DMEM medium containing 1% DMSO. The cells are then incubated with the substances for 72 hours at 37° C. in a humidified atmosphere containing 5% carbon dioxide. To determine the viability of the cells, 10 μl of an Alamar Blue solution (Biosource) are added and the fluorescence is measured at an extinction of 544 nm and an emission of 590 nm. For the calculation of the cell viability the emission value from untreated cells is set as 100% viability and the emission rates of treated cells are set in relation to the values of untreated cells. Viabilities are expressed as % values. The Graphpad Prism program is used for the calculation of EC50 values out of the obtained dose-response curves. Viability is compared of proliferating cells grown in the absence of the inducer Ponasterone A, versus viability of cells arrested by the expression of ectopic p27Kip1 induced by Ponasterone A.

On to `CCN(CC)CCN(C)C(=O)N1N=C2c3cc(F)ccc3OC[C@H]2[C@H]1c1ccccc1` (racemic) [Example 45, (3SR,3aSR)-8-Fluoro-3-phenyl-3a,4-dihydro-3H-chromeno[4,3-c]pyrazole-2-carboxylic acid (2-diethylamino-ethyl)-methyl-amide], for which the EC50 was at most 100 nM. Take `CN(C)CCCN(C)C(=O)N1N=C2c3cc(F)ccc3OC[C@@H]2[C@@H]1c1ccccc1` (racemic) [Example 11, (3RS,3aRS)-8-Fluoro-3-phenyl-3a,4-dihydro-3H-chromeno[4,3-c]pyrazole-2-carboxylic acid (3-dimethylamino-propyl)-methyl-amide]: the EC50 was at most 100 nM. For the compound `CN(C)C(=O)N1N=C2c3cc(F)ccc3OC[C@H]2[C@@H]1c1cccc(O)c1` (single isomer, unassigned) [Example 2b, (−)-cis-8-Fluoro-3-(3-hydroxy-phenyl)-3a,4-dihydro-3H-chromeno[4,3-c]pyrazole-2-carboxylic acid dimethylamide], the EC50 was at most 100 nM. As for `CCNCCN(C)C(=O)N1N=C2c3cc(F)ccc3OC[C@H]2[C@H]1c1ccccc1` (racemic) [Example 62, (3SR,3aSR)-8-Fluoro-3-phenyl-3a,4-dihydro-3H-chromeno[4,3-c]pyrazole-2-carboxylic acid (2-ethylamino-ethyl)-methyl-amide], the figure is 100 to 1000 nM. As for `CN(CCCN1CCCCC1)C(=O)N1N=C2c3cc(F)ccc3OC[C@H]2[C@H]1c1ccccc1` (racemic) [Example 37, (3SR,3aSR)-8-Fluoro-3-phenyl-3a,4-dihydro-3H-chromeno[4,3-c]pyrazole-2-carboxylic acid methyl-(3-piperidin-1-yl-propyl)-amide], the figure is at most 100 nM; as for `CN(C(=O)N1N=C2c3cc(F)ccc3OC[C@H]2[C@H]1c1ccccc1)C1CCNCC1` [Example 16a, (3S,3aS)-8-Fluoro-3-phenyl-3a,4-dihydro-3H-chromeno[4,3-c]pyrazole-2-carboxylic acid methyl-piperidin-4-yl-amide], at most 100 nM; as for `CN(CCO)CCCN(C)C(=O)N1N=C2c3cc(F)ccc3OC[C@H]2[C@H]1c1ccccc1` (racemic) [Example 50, (3SR,3aSR)-8-Fluoro-3-phenyl-3a,4-dihydro-3H-chromeno[4,3-c]pyrazole-2-carboxylic acid {3-[(2-hydroxy-ethyl)-methyl-amino]-propyl}-methyl-amide], at most 100 nM. With `CN(CCNC1CC1)C(=O)N1N=C2c3cc(F)ccc3OC[C@H]2[C@H]1c1ccccc1` (racemic) [Example 60, (3SR,3aSR)-8-Fluoro-3-phenyl-3a,4-dihydro-3H-chromeno[4,3-c]pyrazole-2-carboxylic acid (2-cyclopropylamino-ethyl)-methyl-amide], the EC50 is 100 to 1000 nM. As for `CC(=O)N1CCN(CCCN(C)C(=O)N2N=C3c4cc(F)ccc4OC[C@H]3[C@H]2c2ccccc2)CC1` (racemic) [Example 35, (3SR,3aSR)-8-Fluoro-3-phenyl-3a,4-dihydro-3H-chromeno[4,3-c]pyrazole-2-carboxylic acid [3-(4-acetyl-piperazin-1-yl)-propyl]-methyl-amide], the figure is 100 to 1000 nM; as for `CN(C(=O)N1N=C2c3cc(F)ccc3OCC2C1c1ccccc1)C1CCCNC1` (mixture of isomers) [Example 25, (3RS,3aRS)-8-Fluoro-3-phenyl-3a,4-dihydro-3H-chromeno[4,3-c]pyrazole-2-carboxylic acid (R)-methyl-piperidin-3-yl-amide and (3RS,3aRS)-8-Fluoro-3-phenyl-3a,4-dihydro-3H-chromeno[4,3-c]pyrazole-2-carboxylic acid (S)-methyl-piperidin-3-yl-amide], at most 100 nM; as for `CC1CCN(CCN(C)C(=O)N2N=C3c4cc(F)ccc4OC[C@H]3[C@H]2c2ccccc2)CC1` (racemic) [Example 65, (3SR,3aSR)-8-Fluoro-3-phenyl-3a,4-dihydro-3H-chromeno[4,3-c]pyrazole-2-carboxylic acid methyl-[2-(4-methyl-piperidin-1-yl)-ethyl]-amide], 100 to 1000 nM. Take `CN(C)CCN(C)C(=O)N1N=C2c3cc(F)ccc3OC[C@@H]2[C@@H]1c1ccccc1` (racemic) [Example 19, (3RS,3aRS)-8-Fluoro-3-phenyl-3a,4-dihydro-3H-chromeno[4,3-c]pyrazole-2-carboxylic acid (2-dimethylamino-ethyl)-methyl-amide]: the EC50 was at most 100 nM. Take `CN(CCNC(C)(C)C)C(=O)N1N=C2c3cc(F)ccc3OC[C@H]2[C@H]1c1ccccc1` (racemic) [Example 40, (3SR,3aSR)-8-Fluoro-3-phenyl-3a,4-dihydro-3H-chromeno[4,3-c]pyrazole-2-carboxylic acid (2-tert-butylamino-ethyl)-methyl-amide]: the EC50 is at most 100 nM.

With `CC(=O)N1CCN(CCN(C)C(=O)N2N=C3c4cc(F)ccc4OC[C@@H]3[C@@H]2c2ccccc2)CC1` (racemic) [Example 29, (3RS,3aRS)-8-Fluoro-3-phenyl-3a,4-dihydro-3H-chromeno[4,3-c]pyrazole-2-carboxylic acid [2-(4-acetyl-piperazin-1-yl)-ethyl]methyl-amide], the EC50 was 100 to 1000 nM. In the case of `CNCCCN(C)C(=O)N1N=C2c3cc(F)ccc3OC[C@@H]2[C@@H]1c1ccccc1` (racemic) [Example 22, (3RS,3aRS)-8-Fluoro-3-phenyl-3a,4-dihydro-3H-chromeno[4,3-c]pyrazole-2-carboxylic acid methyl-(3-methylamino-propyl)-amide], the EC50 was at most 100 nM. Consider `CCN(CCO)CCCN(C)C(=O)N1N=C2c3cc(F)ccc3OC[C@@H]2[C@@H]1c1ccccc1` (racemic) [Example 59, (3RS,3aRS)-8-Fluoro-3-phenyl-3a,4-dihydro-3H-chromeno[4,3-c]pyrazole-2-carboxylic acid {3-[ethyl-(2-hydroxy-ethyl)-amino]-propyl}-methyl-amide], for which the EC50 is at most 100 nM. In the case of `CC(C)CN(C)C(=O)N1N=C2c3cc(F)ccc3OC[C@@H]2[C@@H]1c1ccccc1` (racemic) [Example 12, (3RS,3aRS)-8-Fluoro-3-phenyl-3a,4-dihydro-3H-chromeno[4,3-c]pyrazole-2-carboxylic acid isobutyl-methyl-amide], the EC50 is 100 to 1000 nM. With `CN(CCO)CCN(C)C(=O)N1N=C2c3cc(F)ccc3OC[C@H]2[C@H]1c1ccccc1` (racemic) [Example 49, (3SR,3aSR)-8-Fluoro-3-phenyl-3a,4-dihydro-3H-chromeno[4,3-c]pyrazole-2-carboxylic acid {2-[(2-hydroxy-ethyl)-methyl-amino]-ethyl}-methyl-amide], the EC50 was at most 100 nM. In the case of `CN(CCN)C(=O)N1N=C2c3cc(F)ccc3OC[C@H]2[C@H]1c1ccccc1` (stereo in doubt) [Example 18a, (3SR,3aSR)-8-Fluoro-3-phenyl-3a,4-dihydro-3H-chromeno[4,3-c]pyrazole-2-carboxylic acid (2-amino-ethyl)-methyl-amide], the EC50 is at most 100 nM. As for `CN1CCC(N(C(=O)N2N=C3c4cc(F)ccc4OC[C@@H]3[C@@H]2c2cccc(O)c2)C2CC2)CC1` (racemic) [Example 5, (3RS,3aRS)-8-Fluoro-3-(3-hydroxy-phenyl)-3a,4-dihydro-3H-chromeno[4,3-c]pyrazole-2-carboxylic acid cyclopropyl-(1-methyl-piperidin-4-yl)-amide], the EC50 is 100 to 1000 nM. As for `CN(C)CCCN(C)C(=O)N1N=C2c3cc(F)ccc3OC[C@@H]2[C@@H]1c1cccc(O)c1` (racemic) [Example 6, (3RS,3aRS)-8-Fluoro-3-(3-hydroxy-phenyl)-3a,4-dihydro-3H-chromeno[4,3-c]pyrazole-2-carboxylic acid (3-dimethylamino-propyl)-methyl-amide], the figure is at most 100 nM; as for `CCN(C)CCN(C)C(=O)N1N=C2c3cc(F)ccc3OC[C@H]2[C@H]1c1ccccc1` (racemic) [Example 53, (3SR,3aSR)-8-Fluoro-3-phenyl-3a,4-dihydro-3H-chromeno[4,3-c]pyrazole-2-carboxylic acid [2-(ethyl-methyl-amino)-ethyl]-methyl-amide], at most 100 nM; as for `CNCCN(C)C(=O)N1N=C2c3cc(F)ccc3OC[C@@H]2[C@@H]1c1ccccc1` (racemic) [Example 23, (3RS,3aRS)-8-Fluoro-3-phenyl-3a,4-dihydro-3H-chromeno[4,3-c]pyrazole-2-carboxylic acid methyl-(2-methylamino-ethyl)-amide], 100 to 1000 nM. For the compound `CCN(CC)CCCN(C)C(=O)N1N=C2c3cc(F)ccc3OC[C@H]2[C@H]1c1ccccc1` (racemic) [Example 46, (3SR,3aSR)-8-Fluoro-3-phenyl-3a,4-dihydro-3H-chromeno[4,3-c]pyrazole-2-carboxylic acid (3-diethylamino-propyl)-methyl-amide], the EC50 was at most 100 nM. Consider `CC1CCN(CCCN(C)C(=O)N2N=C3c4cc(F)ccc4OC[C@H]3[C@H]2c2ccccc2)CC1` (racemic) [Example 66, (3SR,3aSR)-8-Fluoro-3-phenyl-3a,4-dihydro-3H-chromeno[4,3-c]pyrazole-2-carboxylic acid methyl-[3-(4-methyl-piperidin-1-yl)-propyl]-amide], for which the EC50 was at most 100 nM. As for `CN1CCC(N(C)C(=O)N2N=C3c4cc(F)ccc4OC[C@H]3[C@H]2c2ccccc2)CC1` [Example 9a, (3S,3aS)-8-Fluoro-3-phenyl-3a,4-dihydro-3H-chromeno[4,3-c]pyrazole-2-carboxylic acid methyl-(1-methyl-piperidin-4-yl)-amide], the figure is at most 100 nM; as for `CC(C)CNCCN(C)C(=O)N1N=C2c3cc(F)ccc3OC[C@H]2[C@H]1c1ccccc1` (racemic) [Example 41, (3SR,3aSR)-8-Fluoro-3-phenyl-3a,4-dihydro-3H-chromeno[4,3-c]pyrazole-2-carboxylic acid (2-isobutylamino-ethyl)-methyl-amide], at most 100 nM; as for `C=CCNCCCN(C)C(=O)N1N=C2c3cc(F)ccc3OC[C@H]2[C@H]1c1ccccc1` (racemic) [Example 52, (3SR,3aSR)-8-Fluoro-3-phenyl-3a,4-dihydro-3H-chromeno[4,3-c]pyrazole-2-carboxylic acid (3-allylamino-propyl)-methyl-amide], 100 to 1000 nM.
